Here are results for 69 compounds from ChEMBL document CHEMBL3507680, “University of Dundee, Gates Library screen for HepG2 cell viability”.

Each structure is given as a SMILES string.

The nature of this data set: Human HepG2 cell viability assay in 384 well format. The format is toxicity, cell-based. Set-up: dose 125 nL, time 70.5 hour; concentration not given beside the values. To be noted: HepG2 cells, read-out: Inhibition.
Regarding `CC(=O)NC(C)C1=CCCN(Cc2ccc(C(=O)O)cc2)C1` (centres undefined), the cytotoxicity at 70.5 h is 2.27%.

On to `CC(C)c1nc(C2CCCN(C(=O)c3ccc4c(c3)OCO4)C2)no1` (centres undefined), for which the cytotoxicity at 70.5 h was determined as 18.1%.

`CC(C)Cn1cnc2ccc(NC(=O)CCCn3cccn3)cc2c1=O`: the cytotoxicity at 70.5 h is -2.92%.

Consider `CS(=O)(=O)N1CC[C@H]2O[C@H](C(=O)NCCc3ccncc3)CC[C@H]21`, for which the cytotoxicity at 70.5 h came to 14.6%.

As to `COC(=O)c1cccn1C1CCN(C(=O)c2cc(C)ccc2O)CC1`, the cytotoxicity at 70.5 h amounted to 2.48%.

Regarding `Cc1cnn(CCC(=O)N2CCCC(c3nc(C)c(C)s3)C2)c1` (centres undefined), the cytotoxicity at 70.5 h stood at 1.92%.

As to `CC(=O)N1CCOCC2(CN(Cc3ccccn3)CCO2)C1` (centres undefined), the cytotoxicity at 70.5 h is -9.92%.

Turning to `Cc1ccc(-n2cc(CN3CCN(C)[C@@H]4CS(=O)(=O)C[C@@H]43)cn2)cc1`, the cytotoxicity at 70.5 h was -5.8%.

As to `O=C(NCc1ccc(Br)c(F)c1)Nc1cn[nH]c1`, the cytotoxicity at 70.5 h is -22.7%.

As for `COCC1CN(C(=O)c2cccn2C)Cc2ncnn2C1` (centres undefined), the cytotoxicity at 70.5 h was -3.03%.

Regarding `CC(C(=O)NCc1cccs1)N1CCN(Cc2nccn2C)CC1` (centres undefined), the cytotoxicity at 70.5 h was found to be 13.2%.

Regarding `Cc1ccoc1C(=O)N1CCC(n2cc(-c3ccsc3)nn2)CC1`, the cytotoxicity at 70.5 h is -12.5%.

`Cc1nc(N2CCN(C)CC2)ncc1C(=O)N1CCC(O)(CO)CC1`: the cytotoxicity at 70.5 h is -6.38%.

Turning to `CC1(Cc2ccc(Cl)cc2)Cc2cc(CCC(=O)O)ccc2O1` (centres undefined), the cytotoxicity at 70.5 h is -6.16%.

For the compound `COCCCNC(=O)Nc1cccc(Cl)c1-n1cccn1`, the cytotoxicity at 70.5 h is -3.36%.

Consider `CC1=N[C@@]2(CC[C@@H]3CN(C(=O)NC(C)C)C[C@@H]32)C(=O)N1CC1CC1`, for which the cytotoxicity at 70.5 h came out at 1.82%.

Consider `COCc1ccc(OC)c(CNC2CCCNC2=O)c1` (centres undefined), for which the cytotoxicity at 70.5 h is -8.49%.

As to `Cc1nn2cccnc2c1C(=O)NCc1ccccc1OC1CCC1`, the cytotoxicity at 70.5 h is -4.01%.

As to `CCOc1ccccc1CNC(=O)Cn1ccc2c(C)nn(C)c2c1=O`, the cytotoxicity at 70.5 h was -5.58%.

For the compound `CC(C)(O)CCc1cccc(C(=O)NCCC2CCOC2)c1` (centres undefined), the cytotoxicity at 70.5 h was -0.764%.

Take `CC(C)c1cc(O)nc(C2CCCN2C(=O)C(C)(C)C)n1` (centres undefined): the cytotoxicity at 70.5 h was 26.4%.

Take `CCCc1noc(CN2CCOCC2C)n1` (centres undefined): the cytotoxicity at 70.5 h was determined as 20.1%.

Consider `O=C1CN(C(=O)c2nnn(-c3ccc(C(F)(F)F)cc3)n2)CCN1`, for which the cytotoxicity at 70.5 h was -14.4%.

`CCc1nc(C)c([C@H]2CN(C)C[C@@H]2C(=O)Nc2ccc(OC)cc2)[nH]1`: the cytotoxicity at 70.5 h is -7.07%.

Take `O=C(c1csc(-c2cnccn2)n1)N1CCCC1Cn1cccn1` (centres undefined): the cytotoxicity at 70.5 h was 2.23%.

For `O=C(c1cnc(NCC2CCCO2)c(Cl)c1)N1CCCCC1` (centres undefined), the cytotoxicity at 70.5 h worked out at 30.2%.

For the compound `CCc1noc(C2CCCCN2C(=O)c2cc(C)oc2C)n1` (centres undefined), the cytotoxicity at 70.5 h was 11.6%.

Take `COc1ccccc1CN(Cc1cccnc1)Cc1nccs1`: the cytotoxicity at 70.5 h was determined as 9.35%.

On to `CC(NC(=O)COc1cccc[n+]1[O-])C1CC1` (centres undefined), for which the cytotoxicity at 70.5 h is -4.57%.

On to `COc1ccc(CN2CCC3(CCCNC3)C2)cc1Cn1cccn1` (centres undefined), for which the cytotoxicity at 70.5 h was 3.97%.

For the compound `CCN(CCNC(=O)C1CCN(C(C)=O)CC1)c1ccccc1C`, the cytotoxicity at 70.5 h was -12.4%.

Turning to `Cc1nccc([C@H]2C[C@@H]3CCN(S(=O)(=O)C4CC4)C[C@H]3O2)n1`, the cytotoxicity at 70.5 h is 0.462%.

For the compound `CCOc1cc(C)nc(N2CCN(C(=O)CC)CC2)n1`, the cytotoxicity at 70.5 h is -8.45%.

As to `CS(=O)(=O)c1ccc(NC(=O)CSc2ccc3c(c2)CCC3)cc1`, the cytotoxicity at 70.5 h came out at 1.38%.

With `COc1ccc(C(=O)N2CC[C@@H](N3CCC(O)CC3)[C@H](O)C2)cc1C`, the cytotoxicity at 70.5 h was -3.31%.

Take `Cc1ncsc1C(=O)N(C)Cc1ccncc1`: the cytotoxicity at 70.5 h worked out at 28.4%.

Consider `CN1CCN(C(=O)[C@@H]2CC[C@@H]3[C@@H](CCN3c3ncccn3)O2)CC1`, for which the cytotoxicity at 70.5 h was -7.39%.

On to `CCn1cc(S(=O)(=O)NC(CO)Cc2c[nH]c3ccccc23)cn1` (centres undefined), for which the cytotoxicity at 70.5 h is -7.79%.

For `Cn1cc(CN2CCOCC3(C2)CN(c2ccccc2)C(=O)CO3)cn1` (centres undefined), the cytotoxicity at 70.5 h was -5.28%.

For `CCc1n[nH]c(C2CN(C(=O)c3cnc(C)nc3CC)CCO2)n1` (centres undefined), the cytotoxicity at 70.5 h is -8.34%.

For `CCC(CC)C(=O)NS(=O)(=O)CCc1ccccc1`, the cytotoxicity at 70.5 h is -23.7%.

Regarding `Cc1ncsc1-c1nnc(C2CCN(CC3CCCCC3)CC2)o1`, the cytotoxicity at 70.5 h is -8.62%.

For the compound `Cc1ccsc1C(=O)NCC1COCc2c(C)nnn2C1` (centres undefined), the cytotoxicity at 70.5 h was -1.54%.

As to `Cc1nc(CN2C[C@@H](CN3CCOCC3)[C@@H](CO)C2)c2ccccn12`, the cytotoxicity at 70.5 h was determined as 16.5%.

With `Cc1ccc2c(c1)C1(CC2)CCN(CC(=O)O)CC1`, the cytotoxicity at 70.5 h came out at 5.44%.

For the compound `COc1ccc2cc(C3CN(C(=O)COC(C)C)CCO3)ccc2c1` (centres undefined), the cytotoxicity at 70.5 h is -2.81%.

Take `CCn1cc(CN2CCC(C3CCN(C)CC3)CC2)cc1C#N`: the cytotoxicity at 70.5 h is -1.33%.

As for `Cc1ccc2c(c1)OCCCC2NC1CCN(C)CC1` (centres undefined), the cytotoxicity at 70.5 h was -0.243%.

As for `CC(=O)N1CC[C@@H](N2CCN(C)CC2)[C@@H]1Cc1ccccc1`, the cytotoxicity at 70.5 h is -2.96%.

As to `CS(=O)(=O)CCNC(=O)C1(c2cccc(Cl)c2)CCCCC1`, the cytotoxicity at 70.5 h amounted to 17.7%.

For the compound `CC(C)c1nccn1C1CCCN(C(=O)c2cccc3[nH]ncc23)C1` (centres undefined), the cytotoxicity at 70.5 h was -8.02%.

Regarding `O=C1NCCCCC1SCc1coc(-c2ccccc2)n1` (centres undefined), the cytotoxicity at 70.5 h was -2.46%.

Turning to `CCN1CCC2(CCC(=O)N2Cc2cccc(C)n2)CC1`, the cytotoxicity at 70.5 h was -4.89%.

On to `Fc1cccnc1N1CCCC(c2nccs2)C1` (centres undefined), for which the cytotoxicity at 70.5 h was -5.3%.

Take `Cc1nc(C)c(CC(=O)N2C[C@@H]3CC[C@H](C2)N(CC2CCC2)C3)c(=O)[nH]1`: the cytotoxicity at 70.5 h is -6.37%.

On to `COc1nn(C)c2c1CCCN(S(=O)(=O)c1cccc(F)c1)C2`, for which the cytotoxicity at 70.5 h is -4.75%.

Take `Cc1ccc(C(=O)N2CCC3(CCN3Cc3ccc(F)cc3)C2)cn1` (centres undefined): the cytotoxicity at 70.5 h is -8.15%.

With `O=C(NCc1ccncc1)c1nc2c(o1)CN(C(=O)c1cccnc1)C2`, the cytotoxicity at 70.5 h was -0.144%.

For `CC(C)c1cc(CN(C)C(=O)CN2CCCCC2=O)no1`, the cytotoxicity at 70.5 h came out at 13.9%.

Turning to `O=C(NS(=O)(=O)c1cccc(C(F)(F)F)c1)c1cscn1`, the cytotoxicity at 70.5 h is -10.3%.

For the compound `O=C(NC1CC1)[C@H]1C[C@H]2OCC[C@H]2N(Cc2ccc3ccccc3n2)C1`, the cytotoxicity at 70.5 h was -4.59%.

Regarding `CCCc1noc(CN2CCN(CCO)CC2)n1`, the cytotoxicity at 70.5 h was -1.1%.

In the case of `O=C(NCc1nccn1CCc1ccccc1)NCC1(O)CCC1`, the cytotoxicity at 70.5 h was 1.18%.

Turning to `CN(C)C(=O)COC1COC2(CCN(c3cccc(F)c3)CC2)C1` (centres undefined), the cytotoxicity at 70.5 h came to 2.89%.

`CC(C)CN1C(=O)CO[C@@H]2CN(C(=O)CC(F)(F)F)C[C@H]21`: the cytotoxicity at 70.5 h is -1.53%.

For the compound `CC(C)N(C(=O)Cn1cc(Cl)cn1)c1ccccc1`, the cytotoxicity at 70.5 h is -4.68%.

Regarding `CC(=O)N1CC[C@@H]2O[C@@H](COCc3csc(C)n3)CC[C@@H]21`, the cytotoxicity at 70.5 h came out at 12%.

Regarding `CN(C)C(=O)CN1CCC(c2cccc(Cc3ccc(F)cc3)n2)CC1`, the cytotoxicity at 70.5 h is 15.8%.

In the case of `O=C(c1ccoc1)N1CC[C@H]2C[C@@H](c3ccncn3)O[C@@H]2C1`, the cytotoxicity at 70.5 h was found to be 4.08%.
